Where “and” joins values, the source holds several entries; their conditions need not be identical. Equal values may be shown once.
How the values were obtained:
MDAY-D2 tumor [1] = experiment: BMOV loaded microspheres on tumor growth (Example 19); format: in vivo, mice; conditions: BMOV solution
Protocol: The effect of slow releasing microspheres loaded with 20% BNOV on tumor growth in mice was investigated as follows.
On day 6 the mice were divided into 6 groups as follows: group 1, empty control; group 3, tumor control; group 3, […]; group 4, injected IP with 20 mg palla beads containing 5 mg of BMOV; group 5, injected IP with 10 mg of BMOV beads on day 6 and day 9 respectively and; group 6, injected intramuscularly with 10 mg of BMOV beads on day 6 and day 9. On day 16, the mice were sacrificed and tumors were dissected.

tumor growth = experiment: different concentrations of BMOV on tumor growth (Example 23); format: in vivo, mice; design: Tumour weight / Tumour weight, Means: unit not given here; conditions: for Tumour weight: individual mice
Protocol: In this experiment we determined the optimum concentration for inhibition of tumor growth as follows.
Forty mice were subcutaneously injected with tumor cells (10×10^6/ml)on day 1. On day 5, the mice were divided into five groups as follows: Group 1; control, PBS injected; Group 2: 0.1% BMOV injected; Group 3: 0.25% BMOV injected; Group 4: 0.5% BMOV injected and; Group 5: 0.75% BMOV injected. All the mice were injected (I.P.) with 2 mg NAC before injection of BMOV. […] The effective concentrations of BMOV are from 0.1% to 0.75%.

MDAY-D2 cells = experiment: viability of MDAY-D2 cells; format: cell-based, mouse; conditions: 0-50 μM, 48 hours
Protocol: Fos and jun activity are also required for cellular proliferation in many tumor cell lines. Accordingly, the effect of orthovanadate on adherent cells and cell suspensions were examined. MDAY-D2 (a mouse lymphoid cell line grown in suspension) and HTB14 cells (an adherent human primary astrocytoma cell line) were incubated in media containing 0-50 μM orthovanadate for 48 hours. The cells were harvested and the number of viable cells determined.
Three different forms of vanadyl compounds were examined for their effect on viability of cancer cell lines. MDAY-D2 cells were incubated in media containing 0-50 μM orthovanadate, vanadyl sulphate, or vanadyl hydroperoxide for 48 hours. The cells were harvested and the number of viable cells determined. […] Although there were slight differences in sensitivity, the overall cell death was similar.

[2] = system: metastases of MDAY-D2 cells; experiment: liver metastases of MDAY-D2 cells (histology); format: in vivo, mice; conditions: 500 μg/day; preliminary results
Text: (§1) In order to examine the ability of vanadyl compounds to reduce tumor formation, growth and metastases, a specific animal model which allows investigation of all of these processes in the same animal was chosen. This model involves the injection of a metastatic haematopoietic cell line, MDAY-D2, into mice subcutaneously. These cells form a tumor at the site of injection and its size can be easily determined. In addition, these cells metastasize to the liver and metastases can be detected histologically after day 17 to 19. This model provides a very sensitive and reproducible approach to investigate the effect of vanadyl compounds on tumor growth and metastases.
The metastatic liver was obtained from an animal 24 days following the administration MDAY-D2 cells. The nodules are quite numerous and large.
Livers were removed from animals treated as described above and prepared for histological examination. FIG. 16 compares liver sections from untreated (C), orthovanadate (VO)(500 μg/day) and vanadyl sulphate (VS)(500 μg/day) treated animals. Nodules are identified with an arrow.

synoviocytes = experiment: synoviocyte proliferation, dye exclusion (Example 24); format: cell-based
Protocol: The effect of vanadium compounds on synoviocyte proliferation was investigated as follows. Synoviocytes were plated on six well plates and treated with orthovanadate or vanadyl sulphate and incubated for 24 hours. The cells were removed and the number of viable cells determined by the dye exclusion method.

PLA2 = experiment: release of 3H-arachidonic acid from chondrocytes (PLA2 activity); format: cell-based, bovine; conditions: 100 μM
Protocol: The effect of orthovanadate and N-acetylcysteine on fos, jun and collagenase expression were examined. Bovine articular chondrocytes were isolated and plated as previously described (Kandel R. A. et al. Biochim. Biophys. Acta. 1053, 130-134, 1990). In order to determine the effect of orthovanadate on IL 1 and PMA (phorbol ester) induced responses, chondrocytes were incubated with orthovanadate (100 μM) for 2 hours before stimulation with IL 1 (10 ng/ml) or PMA ([…]). Collagenase production was determined by incubating chondrocytes for 24 hours with IL 1 or PMA and the cell conditioned medium was assayed for collagenase activity using an ELISA procedure as described previously (Kandel et al. supra). PLA2 activity was measured by incorporating ^3 H-arachidonic acid (^3 H-AA) into the cells and then incubating the cells with medium containing 1 mg/ml BSA, either alone or in the presence of IL 1 or PMA, for 10 min. as previously described (Conquer, J. A. […], Biochim. Biophys. Acta. 1134, 1-6). The amount of ^3 H-AA liberated into the supernatant was determined. To measure PGE2 production, chondrocytes were incubated for 6 hours in Ham's F12 medium, either alone or with IL 1 or PMA. The supernatant was analyzed by RIA using an antibody specific for PGE2 (Dr. S. A. Jones, Mount Sinai Hospital, Toronto, Canada). […]

MDAY-D2 tumor [3] = experiment: MDAY-D2 tumor growth in vivo, orthovanadate, vanadyl sulphate, vanadyl hydroperoxide (Example 6B); design: species or system mice
Text: as §1
In a separate experiment using the same animal model, the effect of orthovanadate, vanadyl sulphate and vanadyl hydroperoxide administration on tumor growth in vivo was examined. On Day 1, 20 mice were injected with 2×10^5 MDAY-D2 cell subcutaneously. The mice were divided into four groups of five mice. At day 5, the animals were injected subcutaneously with 50 μl of water alone or containing 10 mg/ml of orthovanadate, 10 mg/ml of vanadyl sulphate, or 10 mg/ml of vanadyl hydroperoxide. This treatment was continued daily for 16 days. At day 21, the mice were sacrificed and the tumors dissected and weighed.

Question: For `Cc1occc(=O)c1[O-].Cc1occc(=O)c1[O-].[O]=[V+2]` [BMOV, bis(methylmaltolato) oxovanadium (IV)], which “Tumour weight, Average” value (MDAY-D2 tumor [1]) is on record?
Answer: 0.15

Question: And the Tumour weight (MDAY-D2 tumor [1]; individual mice)?
Answer: 0.4 and 0.12 and 0.07 and 0.04

Question: And the Tumour weight (tumor growth; 0.1% BMOV + 2 mg NAC i.p.)?
Answer: 0.44 and 0.40 and 0.48 and 0.62 and 0.54 and 0.84 and 0.18 and 0.87

Question: What about the “Tumour weight, Means” value (tumor growth; 0.1% BMOV + NAC) of the same molecule?
Answer: 0.55

Question: And the Tumour weight (tumor growth; 0.25% BMOV + 2 mg NAC i.p.)?
Answer: 0.14 and 0.23 and 0.73 and 0.04 and 0.21 and 0

Question: What about the “Tumour weight, Means” value (tumor growth; 0.25% BMOV + NAC) of the same molecule?
Answer: 0.18

Question: What about the Tumour weight (tumor growth; 0.5% BMOV + 2 mg NAC i.p.) of the same molecule?
Answer: 0.40 and 0.20 and 0.07 and 0.17 and 0.06 and 0

Question: And the “Tumour weight, Means” value (tumor growth; 0.5% BMOV + NAC)?
Answer: 0.22

Question: What about the Tumour weight (tumor growth; 0.75% BMOV + 2 mg NAC i.p.) of the same molecule?
Answer: 0.07 and 0.16 and 0.08 and 0.21 and 0.13 and 0

Question: And the “Tumour weight, Means” value (tumor growth; 0.75% BMOV + NAC)?
Answer: 0.09

Question: And the death of animal (tumor growth; 0.75% BMOV + NAC, mouse 8)?
Answer: died

Question: `[Na+].[Na+].[Na+].[O]=[V]([O-])([O-])[O-]` [orthovanadate, sodium orthovanadate] was tested. Which “toxicity to MDAY-D2 cells” value (MDAY-D2 cells) did it give?
Answer: toxic

Question: And the “killing of MDAY-D2 cells” value (MDAY-D2 cells; three forms compared)?
Answer: equally effective

Question: And the metastases in liver [2]?
Answer: did not have detectable levels of metastases

Question: And the Number of cells (synoviocytes; 25 μM, 24 hours (control 2.6))?
Answer: 0.1 10^-5

Question: What about the cytotoxicity to synoviocytes (synoviocytes; 24 hours) of the same molecule?
Answer: cytotoxic to the cells

Question: And the synoviocyte proliferation (synoviocytes; 24 hours)?
Answer: inhibited synoviocyte proliferation

Question: And the “inhibition of IL 1 or PMA induced release of 3H-AA” value (PLA2)?
Answer: did not inhibit

Question: And the detectable tumors (MDAY-D2 tumor [3]; day 21)?
Answer: one mouse did not have detectable tumors

Question: And the animal deaths (MDAY-D2 tumor [3]; groups of five, 10 mg/ml, 50 μl daily s.c.)?
Answer: One animal died

Question: And the “efficacy in reducing tumor growth” value (MDAY-D2 tumor [3]; mouse, in vivo)?
Answer: most efficacy

From US5871779A, “Treatment of arthropathies with vanadate compounds or analogues thereof” (Mount Sinai Hospital Corporation, priority 1996, dated 1999)
